Assay results taken from the supplement of paper PMC10307832.

Columns and labels:
Test in all cases: relative viability (nuclei count vs DMSO), 5 days (fraction); higher = more cells survive
[1] = compound: Cc1cnc(CNC(=O)c2c(=O)c3ccc(N4CCCN(C)CC4)nc3n3c2sc2ccccc23)cn1 [CX-5461] + N=C(N)NC(=N)NCCc1ccccc1 [Phenformin] (partner 250 µM)
How it was run: (§1)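 A single step with final 0.05% Triton X-100, 1% formaldehyde and 1 ug/ml Hoechst fixed the cells and stained nuclei 5 days after treatment. Lung cancer cell lines in 1536-well plates had been treated by pin tool the day after seeding with one drug alone or a fixed anchor-drug dose plus five library-drug doses (not always all listed) in √10 steps, and nuclei were counted on 4× images. Relative viability is the ratio of nuclei in treated wells to nuclei in vehicle wells, taken as the median of duplicate plates.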

[2] = compound: Cc1cnc(CNC(=O)c2c(=O)c3ccc(N4CCCN(C)CC4)nc3n3c2sc2ccccc23)cn1 [CX-5461] + CCNC(=O)c1noc(-c2cc(C(C)C)c(O)cc2O)c1-c1ccc(CN2CCOCC2)cc1 [Luminespib] (partner 0.01 µM)
How it was run: as §1

[3] = compound: Cc1cnc(CNC(=O)c2c(=O)c3ccc(N4CCCN(C)CC4)nc3n3c2sc2ccccc23)cn1 [CX-5461] + Nc1ncn([C@H]2C[C@H](O)[C@@H](CO)O2)c(=O)n1 [Decitabine] (partner 2 µM)
How it was run: as §1

[4] = compound: O=C(Nc1cc(C(F)(F)F)cc(C(F)(F)F)c1)c1cc(Cl)ccc1O [IMD-0354] + C[C@]1(O)C[C@@H](c2nc(-c3ccc4ccc(-c5ccccc5)nc4c3)c3c(N)nccn32)C1 [Linsitinib] (partner 1 µM)
How it was run: as §1

Cell Line	relative viability ([1]; first compound 0.01 µM)	relative viability ([1]; first compound 0.03162 µM)	relative viability ([1]; first compound 0.1 µM)	relative viability ([1]; first compound 0.3162 µM)	relative viability ([1]; first compound 1 µM)	relative viability ([2]; first compound 0.01 µM)	relative viability ([2]; first compound 0.03162 µM)	relative viability ([2]; first compound 0.1 µM)	relative viability ([2]; first compound 0.3162 µM)	relative viability ([2]; first compound 1 µM)	relative viability ([3]; first compound 0.01 µM)	relative viability ([3]; first compound 0.03162 µM)	relative viability ([3]; first compound 0.1 µM)	relative viability ([3]; first compound 0.3162 µM)	relative viability ([3]; first compound 1 µM)	relative viability ([4]; first compound 0.04 µM)	relative viability ([4]; first compound 0.1265 µM)	relative viability ([4]; first compound 0.4 µM)	relative viability ([4]; first compound 1.265 µM)	relative viability ([4]; first compound 4 µM)
NCI-H2009	0.501	0.441	0.24	0.472	0.282	1.08	1.02	0.887	0.985	0.508	0.41	0.374	0.335	0.37	0.308	1.16	1.12	1.02	0.465	0.139
HCC-15	0.514	0.53	0.372	0.467	0.163	0.236	0.331	0.305	0.359	0.216	0.684	0.654	0.605	0.69	0.354	0.801	0.812	0.489	0.376	0.141
HCC-44	0.179	0.205	0.145	0.229	0.136	1.11	1.26	0.714	0.834	0.208	0.946	1.02	0.887	0.939	0.837	0.68	0.573	0.394	0.297	0.128
COR-L23	0.472	0.431	0.414	0.426	0.301	0.641	0.597	0.512	0.547	0.333	0.424	0.424	0.371	0.489	0.219	0.764	0.73	0.388	0.116	0.158
NCI-H727	0.602	0.601	0.974	0.464	0.617	0.664	0.439	0.384	0.58	0.321	0.89	0.917	0.839	0.83	0.956	0.161	0.257	0.281	0.206	0.233
NCI-H2087	0.411	0.406	0.398	0.316	0.32	0.184	0.166	0.15	0.158	0.178	0.277	0.306	0.213	0.288	0.188	0.887	0.659	0.308	0.127	0.203
BEN	0.28	0.263	0.253	0.28	0.268	0.326	0.391	0.289	0.337	0.181	0.757	0.706	0.711	0.652	0.545	0.929	0.771	0.537	0.435	0.256
LCLC-103H	0.377	0.349	0.326	0.364	0.297	1.03	1.08	1.01	1.14	0.975	0.684	0.743	0.705	0.766	0.707	1.11	1.07	0.844	0.821	0.425
